SMILES strings stand for the structures. pIC50: −log10 of the molar value.

The target in the assay is T1, stearoyl-CoA desaturase (SCD) (Rattus norvegicus, UniProt P07308).
T1 construct: The microsomes were quickly thawed and added to assay buffer so that a concentration of 0.4 mg/ml was achieved; from tissue
T1 sequence (P07308 1-358): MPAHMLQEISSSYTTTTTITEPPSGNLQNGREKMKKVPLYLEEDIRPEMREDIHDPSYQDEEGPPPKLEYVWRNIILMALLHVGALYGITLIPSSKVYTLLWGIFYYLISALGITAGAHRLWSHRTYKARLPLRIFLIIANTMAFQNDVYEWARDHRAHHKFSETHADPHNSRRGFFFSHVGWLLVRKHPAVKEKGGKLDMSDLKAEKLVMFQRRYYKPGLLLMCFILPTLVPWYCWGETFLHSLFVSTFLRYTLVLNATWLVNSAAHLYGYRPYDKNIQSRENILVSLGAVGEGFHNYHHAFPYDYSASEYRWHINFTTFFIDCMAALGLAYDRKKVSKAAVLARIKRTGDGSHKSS
The assay can be described thus: SCD assay with rat liver microsomes ([3H]stearoyl CoA, adapted from Talamo and Bloch). It is filed as biochemical. Particulars: Table 2 (Example 21, procedures of Example 20); rat liver microsomes, [3H]stearoyl CoA substrate. The method in brief: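 Liver microsomes came from diet-induced male Sprague Dawley rats and were used at 0.2 mg/ml final. Assay buffer was Tris pH 7.2 with NADH, ATP, CoA, MgCl2 and 0.1% BSA. Compounds were preincubated 30 min, then reacted 45 min at room temperature with [3H]stearoyl-CoA; after TCA stop and Bio-Bead cleanup, supernatant radioactivity was counted by scintillation.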
In general terms: Liver microsomes are vesicles of endoplasmic reticulum, rich in cytochrome P450 enzymes.
As usually defined, the pIC50 is the IC50 on a negative log10 scale, so that one unit is a factor of ten. Lower therefore signals a large IC50. `CNC(=O)c1ccc2c(=O)n(Cc3ccc(Cl)c(Cl)c3)cnc2c1` [compound 88, 3-(3,4-dichlorobenzyl)-N-methyl-4-oxo-3,4-dihydroquinazoline-7-carboxamide] gave a pIC50 of 5.82. For `CNC(=O)c1ccc2c(=O)n(Cc3ccc(Cl)cc3)cnc2c1` [compound 89, 3-(4-chlorobenzyl)-N-methyl-4-oxo-3,4-dihydroquinazoline-7-carboxamide] the value was 5.12; for `O=C(NCc1ccc(F)cc1)c1ccc2c(=O)n(Cc3ccc(Cl)cc3)cnc2c1` [compound 90, 3-(4-chlorobenzyl)-N-(4-fluorobenzyl)-4-oxo-3,4-dihydroquinazoline-7-carboxamide], 6.05; for `O=C(NCc1ccc(Cl)c(Cl)c1)c1ccc2c(=O)n(Cc3ccc(Cl)c(Cl)c3)cnc2c1` [compound 91, N,3-bis(3,4-dichlorobenzyl)-4-oxo-3,4-dihydroquinazoline-7-carboxamide], 5.77. The result for `O=C(NCCO)c1ccc2c(=O)n(Cc3ccc(Cl)cc3)cnc2c1` [compound 92, 3-(4-chlorobenzyl)-N-(2-hydroxyethyl)-4-oxo-3,4-dihydroquinazoline-7-carboxamide] reads 6.00.

Consider `COCCNC(=O)c1ccc2c(=O)n(Cc3ccc(Cl)cc3)cnc2c1` [compound 93, 3-(4-chlorobenzyl)-N-(2-methoxyethyl)-4-oxo-3,4-dihydroquinazoline-7-carboxamide], for which the pIC50 was 5.51. For `NCC(=O)Nc1ccc2ncn(Cc3ccc(Cl)c(Cl)c3)c(=O)c2c1` [compound 94, 2-amino-N-(3-(3,4-dichlorobenzyl)-4-oxo-3,4-dihydroquinazolin-6-yl)acetamide] the value was 5.89; for `O=C(CCO)Nc1ccc2ncn(Cc3ccc(Cl)c(Cl)c3)c(=O)c2c1` [compound 95, N-(3-(3,4-dichlorobenzyl)-4-oxo-3,4-dihydroquinazolin-6-yl)-3-hydroxypropanamide], 4.92; for `O=C(Nc1ccc2ncn(Cc3ccc(Cl)c(Cl)c3)c(=O)c2c1)[C@H](O)Cc1ccccc1` [compound 96, (R)—N-(3-(3,4-dichlorobenzyl)-4-oxo-3,4-dihydroquinazolin-6-yl)-2-hydroxy-3-phenylpropanamide], 5.41. The compound `O=C(Nc1ccc2ncn(Cc3ccc(Cl)c(Cl)c3)c(=O)c2c1)[C@@H](O)Cc1ccccc1` [compound 97, (S)—N-(3-(3,4-dichlorobenzyl)-4-oxo-3,4-dihydroquinazolin-6-yl)-2-hydroxy-3-phenylpropanamide] showed a pIC50 of 5.32. The result for `O=C(C[C@H](O)c1ccccc1)Nc1ccc2ncn(Cc3ccc(Cl)c(Cl)c3)c(=O)c2c1` [compound 98, (S)—N-(3-(3,4-dichlorobenzyl)-4-oxo-3,4-dihydroquinazolin-6-yl)-3-hydroxy-3-phenylpropanamide] reads 5.74; that for `O=C(C[C@@H](O)c1ccccc1)Nc1ccc2ncn(Cc3ccc(Cl)c(Cl)c3)c(=O)c2c1` [compound 99, (R)—N-(3-(3,4-dichlorobenzyl)-4-oxo-3,4-dihydroquinazolin-6-yl)-3-hydroxy-3-phenylpropanamide], 5.77. The result for `O=C(Nc1ccc2ncn(Cc3ccc(Cl)c(Cl)c3)c(=O)c2c1)[C@@H](O)c1ccccc1` [compound 100, (S)—N-(3-(3,4-dichlorobenzyl)-4-oxo-3,4-dihydroquinazolin-6-yl)-2-hydroxy-2-phenylacetamide] reads 5.64; that for `C[C@@H](c1ccc(Cl)c(C(F)(F)F)c1)n1cnc2ccc(NC(=O)CO)cc2c1=O` [compound 102, (S)—N-(3-(1-(4-chloro-3-(trifluoromethyl)phenyl)ethyl)-4-oxo-3,4-dihydroquinazolin-6-yl)-2-hydroxyacetamide], 6.32; that for `O=C(Nc1ccc2ncn(C/C=C/COc3cc(Cl)ccc3Cl)c(=O)c2c1)OCc1ccccc1` [compound 103, (E)-benzyl 3-(4-(2,5-dichlorophenoxy)but-2-enyl)-4-oxo-3,4-dihydroquinazolin-6-ylcarbamate], 6.42.

As to `O=C(Nc1ccc2ncn(Cc3ccc(Cl)c(Cl)c3)c(=O)c2c1)C(O)CO` (centres unmarked) [compound 106, N-(3-(3,4-dichlorobenzyl)-4-oxo-3,4-dihydroquinazolin-6-yl)-2,3-dihydroxypropanamide], the pIC50 is 5.41.

Turning to `O=C(O)C(=O)Nc1ccc2ncn(Cc3ccc(Cl)c(Cl)c3)c(=O)c2c1` [compound 107, 2-(3-(3,4-dichlorobenzyl)-4-oxo-3,4-dihydroquinazolin-6-ylamino)-2-oxoacetic acid], the negative logarithm of the IC50 (pIC50) was 6.05.

The values are drawn from US20090105283A1, “3-HYDROQUINAZOLIN-4-ONE DERIVATIVES FOR USE AS STEAROYL CoA DESATURASE INHIBITORS” (priority 2007, published 2009).
